Results: publication PMC4230905, “(S)-3-hydroxyacyl-CoA dehydrogenase/enoyl-CoA hydratase (FadB’) from fatty acid degradation operon of Ralstonia eutropha H16” (AMB Express, 2014)
Values belong to the molecule of their own block, whether it stands above or below them.

Experiments:
[1] = biological target: T1, FadB' ((S)-3-hydroxyacyl-CoA dehydrogenase/enoyl-CoA hydratase, H16_A0461; FadB'Re) (Cupriavidus necator, UniProt Q0KEG0); experiment: coupled assay, acetoacetyl-CoA-Mg2+ complex formation at […] nm; format: biochemical; conditions: read-out: % inhibition at 0.1 mM (enoyl-CoA hydratase activity)
T1 construct: N-terminal His-tag (pCOLADuet-1::3HAD), expressed in E. coli BL21; monomer (87 kDa by gel filtration); N-terminal 3HCDH and C-terminal crotonase-like domain
T1 sequence (Q0KEG0 1-807): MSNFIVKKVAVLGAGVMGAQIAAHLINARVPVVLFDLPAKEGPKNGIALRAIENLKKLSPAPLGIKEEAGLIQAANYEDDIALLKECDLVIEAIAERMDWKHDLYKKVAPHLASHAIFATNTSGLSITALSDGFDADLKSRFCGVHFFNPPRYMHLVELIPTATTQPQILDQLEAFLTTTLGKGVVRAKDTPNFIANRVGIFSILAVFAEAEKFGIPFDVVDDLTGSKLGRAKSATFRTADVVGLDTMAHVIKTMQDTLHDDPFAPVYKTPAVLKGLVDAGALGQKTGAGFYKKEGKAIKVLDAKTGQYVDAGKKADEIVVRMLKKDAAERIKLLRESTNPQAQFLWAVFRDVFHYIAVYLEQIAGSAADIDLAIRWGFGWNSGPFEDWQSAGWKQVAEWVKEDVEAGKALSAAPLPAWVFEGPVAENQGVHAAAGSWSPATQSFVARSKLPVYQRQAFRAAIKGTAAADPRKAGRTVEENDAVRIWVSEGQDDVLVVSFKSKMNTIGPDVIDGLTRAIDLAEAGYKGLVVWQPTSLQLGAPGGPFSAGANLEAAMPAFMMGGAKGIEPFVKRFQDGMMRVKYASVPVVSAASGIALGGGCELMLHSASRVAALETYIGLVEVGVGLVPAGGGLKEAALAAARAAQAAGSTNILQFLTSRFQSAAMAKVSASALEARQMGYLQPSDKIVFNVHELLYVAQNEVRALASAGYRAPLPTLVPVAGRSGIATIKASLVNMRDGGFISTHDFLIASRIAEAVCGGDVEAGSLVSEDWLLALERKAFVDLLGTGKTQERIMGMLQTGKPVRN

[2] = biological target: T1, FadB' ((S)-3-hydroxyacyl-CoA dehydrogenase/enoyl-CoA hydratase, H16_A0461; FadB'Re); experiment: spectrophotometric NADH oxidation at […] nm; format: biochemical; conditions: read-out: % inhibition at 0.1 mM (3-hydroxyacyl-CoA dehydrogenase activity)
purified protein = substrate: CC(=O)CC(=O)SCCNC(=O)CCNC(=O)[C@H](O)C(C)(C)COP(=O)(O)OP(=O)(O)OC[C@H]1O[C@@H](n2cnc3c(N)ncnc32)[C@H](O)[C@@H]1OP(=O)(O)O; experiment: purified protein; format: biochemical, Cupriavidus necator; conditions: 3-hydroxyacyl-CoA dehydrogenase activity (reduction direction), 0.2 mM NADH, 100 mM Tris-HCl pH 7, 30 °C, no acetyl-CoA added

Molecule: CC(C)(COP(=O)(O)OP(=O)(O)OC[C@H]1O[C@@H](n2cnc3c(N)ncnc32)[C@H](O)[C@@H]1OP(=O)(O)O)[C@@H](O)C(=O)NCCC(=O)NCCS [CoA]
- inhibition at 100 µM [1]: 30%
- inhibition at 100 µM [2]: 20%

B1: FadB' ((S)-3-hydroxyacyl-CoA dehydrogenase/enoyl-CoA hydratase, H16_A0461; FadB'Re) (Cupriavidus necator H16) (protein)
chain: T1 sequence (Q0KEG0 1-807)
notes: N-terminal His-tag (pCOLADuet-1::3HAD), expressed in E. coli BL21; monomer (87 kDa by gel filtration); N-terminal 3HCDH and C-terminal crotonase-like domain
- Km (purified protein): 48 µM

The next lines start with the values.

- inhibition at 100 µM [1]: ~60%
Molecule: CCC(=O)SCCNC(=O)CCNC(=O)[C@H](O)C(C)(C)COP(=O)(O)OP(=O)(O)OC[C@H]1O[C@@H](n2cnc3c(N)ncnc32)[C@H](O)[C@@H]1OP(=O)(O)O [propionyl-CoA]

- inhibition at 100 µM [1]: 70%
- inhibition at 100 µM [2]: ~50%
Molecule: CC(=O)SCCNC(=O)CCNC(=O)[C@H](O)C(C)(C)COP(=O)(O)OP(=O)(O)OC[C@H]1O[C@@H](n2cnc3c(N)ncnc32)[C@H](O)[C@@H]1OP(=O)(O)O [acetyl-CoA]
